The results in this text go back to patent US6897065B1, “Method for maturation of conifer somatic embryos” (Woody Plant Biotech APS, priority 1999, dated 2005).

Holding throughout (format): cell-based
The test system of test [1] is embryogenic cell lines of Abies nordmanniana. In words: Maturation of the tested established Abies nordmanniana embryogenic cell lines (G.3.8, G.35.8, G.78.14). An excerpt:
(§1) Three different cell lines of Abies nordmanniana were used in the present study. The tested cell lines have been in continuous culture for several years. The cell line G.3.8 was initiated from an immature zygotic embryo in 1989 on half strength MS medium (Murashige and Skoog, 1962) as described previously (Nørgaard and Krogstrup, 1991), Cell line G.35.8 was initiated from a mature zygotic embryo on SH medium in 1991 (Nørgaard and Krogstrup, 1995), and cell line G.78.14 was initiated in 1993 from an immature zygotic embryo on modified half strength BLG medium (Verhagen and Wann, 1989). From 1996, all cultures were maintained by biweekly subculture onto fresh half strength modified BLG medium and grown at 24+/−1° C. in the dark. Cell lines G.3.8 and G.78.14 proliferated fast on maintenance medium with a doubling time of the weight shorter than 2 weeks. Cell line G.35.8 proliferated relatively slowly with a doubling time of the weight higher than 2 weeks.
The standard maturation medium (the control) is modified from the half strength BLG proliferation medium mentioned above. […] The choice of these three culture medium components is determined primarily by the conifer species in question. […] Similarly it is known that addition of PEG-4000 improves maturation. Still it may be possible to obtain just as good results with other combinations of these components and also by using other components with equivalent effects.
In this experiment, the standard maturation medium was modified by excluding PEG and by including one of the following 3 chemicals, that are traditionally expected to affect the endogenous concentration of the naturally occurring auxin IAA or to affect the normal effect of auxin in plant cells: 1) PCIB (auxin-antagonist) in a concentration of 25 or 117 μM, 2) TIBA (auxin transport inhibitor) in a concentration of 5 or 50 μM, 3) phlouroglucinol: (inhibitor of auxin degradation) (see George 1993, page 429 bottom-430) in a concentration of 30 mM. In addition to these modifications the standard maturation medium was modified by: 4) reducing the concentration of boron (precursor of indole acetic acid synthesis) to 10 μM, i.e. 20% of the normal concentration and finally by 5) including 25 μM PCIB in medium with no ABA.
The cultures were matured in the dark at 24° C.+/−1° C.
Two weeks after the last subculture, 4 grams of embryogenic cells was transferred to a 250 mL Flask (Blue cap) together with a magnet stirrer. 100 mL of liquid proliferation medium was added, and the suspension was stirred for 5 minutes at high speed on a magnet stirrer to obtain a homogenous suspension of cells and cell clumps. The culture was then pre-cultured on a gyrotory shaker (120 rpm) for one week at 24+/−1° C. in the dark. Following the pre-culture, the culture was stirred again on a magnet stirrer at high speed for 5 minutes. The culture was transferred to a 100 mL measuring cylinder and allowed to settle for 30 min. The supernatant was discharged and from the remaining culture aliquots of 1 mL were transferred with a cut pipette tip onto filter paper (Whatmann #2) placed on 25 mL of maturation medium in 10 cm Petri dishes (Nunc, Denmark). The filters containing the maturing somatic cultures were transferred onto fresh medium every 2 weeks.
FIG. 5 discloses maturation of cell line G.78.14. This cell line proliferates rapidly and produces very few normal mature embryos according to prior methods. The cell line was matured for 20 weeks on medium comprising 40 μM ABA and a) 25 μM PCIB, b) 0.4 mM phloroglucinol, or c) reduced concentration of Boron (20% of normal concentration). For control see FIG. 1a or 2a.
FIG. 6 discloses maturation of cell line G.78.14 for 20 weeks on maturation medium comprising 40 μM ABA and a) 2.5 mg/L TIBA (5 μM), or b) 25 mg/L TIBA (50 μM).

The test system of test [2] is Abies nordmanniana cell line G.35.8. In words: Maturation of established Abies nordmanniana cell line G.35.8 (slowly proliferating).
Text: as §1
The standard maturation medium (the control) is modified from the half strength BLG proliferation medium mentioned above. […] The choice of these three culture medium components is determined primarily by the conifer species in question. […] Similarly it is known that addition of PEG-4000 improves maturation. […]

Test [3] deals with Picea sitchensis cell lines G.1.12, G.1.13. In words: Maturation in embryogenic cultures of Picea sitchensis. The settings on record: anti-auxin step as for Picea abies. On the procedure:
Two cell lines of Picea sitchensis, G.1.12, G.1.13, initiated from cotyledons from mature embryos were used for the present study. The cultures were initiated and pretreated on BMI-S1 medium as above, but with 1000 mg/L casein hydrolysate and 10 μM 2,4-D. Pretreatment, maturation medium and anti-auxin step as for Picea abies.

Test [4] has as its system newly established Abies nordmanniana embryogenic cell lines. Briefly: Maturation in newly established Abies nordmanniana embryogenic cultures. The settings on record: 8 weeks maturation, 40 μM ABA and 25 μM PCIB from week 2 to 4; cell lines less than 6 months old. As to the method: Approximately 50 cell lines were initiated from mature seeds in the same way as cell line G.78.14 (Example 1). The cultures were initiated and maintained on modified half strength BLG medium (See example 1). The cultures were less than 6 months old when they were subjected to maturation. The cultures were plated as described in Example 1. The cultures were subjected to two different maturation protocols. • 1) Maturation for 8 weeks on culture medium comprising 40 μM ABA and 5% PEG-4000. • 2) Maturation for as 1) but from week 2 to 4 the cultures were on culture medium comprising 40 μM ABA and 25 μM PCIB.

Setting [5] is: medium including both ABA and 25 μM PCIB.

Regarding `CC(C)(Oc1ccc(Cl)cc1)C(=O)O` [PCIB, p-Chlorophenoxyisobutyric acid], the proliferation during maturation entry in test [1] (25 μM PCIB, ABA excluded) is “proliferation was reduced”; in test [1] (setting [5]), “proliferation was reduced”; in test [3], “proliferation was clearly reduced”. For the same molecule, the “development of mature embryos” value in test [1] (25 μM PCIB, ABA excluded, 20 weeks, all tested cell lines) was “only few and clearly abnormal and precociously germinating embryos were developed”. Further, the “embryo morphology (abnormality)” value in test [1] (higher concentrations than 25 μM of PCIB) was “the embryos developed asymmetrically with one major and one minor cotyledon (FIG. 4C) or with only one cotyledon”; in test [1] (slowly proliferating cell lines, ABA and 25 μM PCIB for longer periods than 4 weeks), “embryos with only two symmetric cotyledons developed”. Besides, the “development of embryos during maturation” value in test [1] (setting [5]) is reported as “high numbers of embryos developed”. For the same molecule, the results for the “number of well formed mature embryos” value in test [2] (25 μM PCIB + 40 μM ABA during the entire maturation period) and in test [2] (25 μM PCIB + 40 μM ABA from week 4 to 8 of the 20 week maturation period) were “about 15 embryos per Petri dish” and “about 250 embryos per Petri dish”, respectively. Besides, the “general appearance of the cultures” value in test [3] is recorded as “improved”. Moreover, in test [4], the “production of mature somatic embryos” value is listed as “almost all cell lines produced high numbers of mature somatic embryos”.
